Legend:
[1] = target: T1, Nuclear receptor subfamily 1 group I member 2 (Homo sapiens, UniProt O75469); experiment: Transactivation of PXR (unknown origin) relative to refampicin; assay type: ADME
T1 sequence (O75469 whole entry): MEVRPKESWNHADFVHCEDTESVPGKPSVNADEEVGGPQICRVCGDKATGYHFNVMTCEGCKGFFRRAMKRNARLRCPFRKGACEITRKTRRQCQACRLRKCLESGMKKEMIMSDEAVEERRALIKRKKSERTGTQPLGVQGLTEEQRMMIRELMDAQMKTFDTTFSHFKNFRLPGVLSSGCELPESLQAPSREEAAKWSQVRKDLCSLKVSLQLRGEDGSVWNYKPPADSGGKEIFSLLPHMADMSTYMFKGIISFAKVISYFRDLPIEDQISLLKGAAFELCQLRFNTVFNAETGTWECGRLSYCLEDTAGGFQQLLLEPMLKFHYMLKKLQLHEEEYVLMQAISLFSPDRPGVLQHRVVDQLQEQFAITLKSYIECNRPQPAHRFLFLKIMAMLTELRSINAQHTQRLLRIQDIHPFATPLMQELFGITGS

[2] = Clearance in C57BL6 mouse at 1 mg/kg, iv; assay type: ADME, organism-based; conditions: in vivo
Bile salt export pump = Bile salt export pump (Homo sapiens, UniProt O95342); experiment: Inhibition of BSEP (unknown origin)
[3] = Clearance in Sprague-Dawley rat at 1 mg/kg, iv; assay type: ADME, organism-based; conditions: in vivo
Mus musculus [4] = experiment: Antifibrotic activity against bile duct ligation-induced liver cholestasis C57BL/6NTac mouse model assessed as reduction in collagen level administered orally as single dose for 9 days and measured after 24 hrs post-last dose by picrosirius red staining method; assay type: functional, organism-based; conditions: dose 0.3-10 mg/kg, route po, time 9.0 day, DDE = dose-dependent effect
[5] = Metabolic stability in rat liver microsome assessed as parent compound remaining at […] measured after 10 mins; assay type: ADME; conditions: liver microsomes, read-out: Stability
[6] = Genotoxicity in Salmonella typhimurium by Ames test; assay type: toxicity; conditions: salmonella enterica subsp. enterica serovar typhimurium
[7] = Half life in Sprague-Dawley rat at 1 mg/kg, iv; assay type: ADME, organism-based; conditions: in vivo
[8] = Volume of distribution at steady state in Sprague-Dawley rat at 1 mg/kg, iv; assay type: ADME, organism-based; conditions: in vivo, read-out: Vdss
Bile acid receptor [9] = target: T2, Bile acid receptor (Homo sapiens, UniProt Q96RI1); experiment: Agonist activity at Gal4-fused human FXR in HEK293 cells incubated for 15 min by luciferase reporter assay; assay type: cell-based
T2 sequence (Q96RI1 whole entry): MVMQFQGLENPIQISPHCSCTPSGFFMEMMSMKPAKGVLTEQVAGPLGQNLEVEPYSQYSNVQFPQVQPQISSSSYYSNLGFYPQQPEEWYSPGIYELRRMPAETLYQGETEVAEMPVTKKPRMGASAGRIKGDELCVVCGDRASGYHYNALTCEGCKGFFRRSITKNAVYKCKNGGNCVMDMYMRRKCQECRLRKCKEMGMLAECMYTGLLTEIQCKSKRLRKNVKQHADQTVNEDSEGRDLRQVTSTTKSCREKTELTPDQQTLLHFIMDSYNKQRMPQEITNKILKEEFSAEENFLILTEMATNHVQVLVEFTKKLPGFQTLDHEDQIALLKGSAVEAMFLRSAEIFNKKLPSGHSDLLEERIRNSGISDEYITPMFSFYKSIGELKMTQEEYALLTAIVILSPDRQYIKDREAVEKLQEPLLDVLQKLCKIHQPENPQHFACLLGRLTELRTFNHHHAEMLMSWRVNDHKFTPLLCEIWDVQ

Mus musculus [10] = experiment: Antifibrotic activity against bile duct ligation-induced liver cholestasis C57BL/6NTac mouse model assessed as reduction in hydroxyproline level in liver administered orally as single dose for 9 days and measured after 24 hrs post-last dose by picrosirius red staining method; assay type: functional, organism-based; conditions: dose 0.3-10 mg/kg, route po, time 9.0 day, DDE = dose-dependent effect
Bile acid receptor [11] = target: T2, Bile acid receptor; experiment: Agonist activity at LBD fused human FXR in HEK293 cells incubated for 30 min by envision plate reader method; assay type: cell-based
Cytochrome P450 3A4 = Cytochrome P450 3A4 (Homo sapiens, UniProt P08684); experiment: Inhibition of CYP3A4 in human liver microsomes using fluorogenic substrate preincubated for 15 min followed by NADPH addition measured after 2 hrs by fluorescence based assay; assay type: ADME, Microsome
[12] = target: T1, Nuclear receptor subfamily 1 group I member 2; experiment: Transactivation of PXR (unknown origin); assay type: ADME
[13] = Half life in C57BL6 mouse at 1 mg/kg, iv; assay type: ADME, organism-based; conditions: in vivo
Cytochrome P450 2C8 = target: T3, Cytochrome P450 2C8 (Homo sapiens, UniProt P10632); experiment: Inhibition of CYP2C8 in human liver microsomes using fluorogenic substrate preincubated for 15 min followed by NADPH addition measured after 2 hrs by fluorescence based assay; assay type: ADME, Microsome
T3 sequence (P10632 whole entry): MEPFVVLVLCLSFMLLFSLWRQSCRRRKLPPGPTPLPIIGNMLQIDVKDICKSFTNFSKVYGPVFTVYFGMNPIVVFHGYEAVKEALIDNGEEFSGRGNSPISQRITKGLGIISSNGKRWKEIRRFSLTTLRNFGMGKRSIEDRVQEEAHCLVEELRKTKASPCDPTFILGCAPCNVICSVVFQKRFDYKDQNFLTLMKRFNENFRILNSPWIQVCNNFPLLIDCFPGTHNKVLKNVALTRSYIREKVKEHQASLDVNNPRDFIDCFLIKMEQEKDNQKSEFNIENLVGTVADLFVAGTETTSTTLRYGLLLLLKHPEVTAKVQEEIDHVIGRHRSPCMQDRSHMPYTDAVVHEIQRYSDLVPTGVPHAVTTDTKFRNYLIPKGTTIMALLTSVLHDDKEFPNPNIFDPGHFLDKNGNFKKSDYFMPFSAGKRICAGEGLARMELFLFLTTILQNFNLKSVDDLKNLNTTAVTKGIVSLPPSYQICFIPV

[14] = AUC (total) in C57BL6 mouse at 1 mg/kg, iv; assay type: ADME, organism-based; parameters: dose 1 mg/kg, route iv; conditions: in vivo
Cytochrome P450 2D6 = Cytochrome P450 2D6 (Homo sapiens, UniProt P10635); experiment: Inhibition of CYP2D6 in human liver microsomes using fluorogenic substrate preincubated for 15 min followed by NADPH addition measured after 2 hrs by fluorescence based assay; assay type: ADME, Microsome
[15] = target: T4, Bile acid receptor (Homo sapiens) (UniProt Q96RI1); experiment: Agonist activity at LBD-fused human FXR in HEK293 cells incubated for 30 min by envision plate reader method relative to GW2064; assay type: cell-based; conditions: filed as agonist
T4 sequence (whole entry): T2 sequence (Q96RI1 whole entry)

[16] = target: Voltage-gated inwardly rectifying potassium channel KCNH2 (Homo sapiens, UniProt Q12809); experiment: Inhibition of hERG by patch clamp assay; assay type: toxicity
Cytochrome P450 2C19 = Cytochrome P450 2C19 (Homo sapiens, UniProt P33261); experiment: Inhibition of CYP2C19 in human liver microsomes using fluorogenic substrate preincubated for 15 min followed by NADPH addition measured after 2 hrs by fluorescence based assay; assay type: ADME, Microsome
[17] = Metabolic stability in human liver microsome assessed as parent compound remaining at […] measured after 10 mins; assay type: ADME; conditions: liver microsomes, read-out: Stability

Chain of Cytochrome P450 2C19 (P33261 whole entry): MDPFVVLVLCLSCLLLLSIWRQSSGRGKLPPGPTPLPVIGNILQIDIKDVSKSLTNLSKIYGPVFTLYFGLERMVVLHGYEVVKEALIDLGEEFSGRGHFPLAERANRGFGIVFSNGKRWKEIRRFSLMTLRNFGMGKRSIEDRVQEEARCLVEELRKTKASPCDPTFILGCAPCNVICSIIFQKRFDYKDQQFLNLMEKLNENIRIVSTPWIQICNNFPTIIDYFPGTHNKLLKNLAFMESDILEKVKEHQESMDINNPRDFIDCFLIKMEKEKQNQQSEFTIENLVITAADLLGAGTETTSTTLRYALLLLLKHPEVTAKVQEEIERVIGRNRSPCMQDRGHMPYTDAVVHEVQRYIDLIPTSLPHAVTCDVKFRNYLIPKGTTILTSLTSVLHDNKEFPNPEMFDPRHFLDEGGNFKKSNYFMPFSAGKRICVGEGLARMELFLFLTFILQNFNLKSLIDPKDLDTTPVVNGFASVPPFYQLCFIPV
Chain of Cytochrome P450 2D6 (P10635 whole entry, the tested form may be a part): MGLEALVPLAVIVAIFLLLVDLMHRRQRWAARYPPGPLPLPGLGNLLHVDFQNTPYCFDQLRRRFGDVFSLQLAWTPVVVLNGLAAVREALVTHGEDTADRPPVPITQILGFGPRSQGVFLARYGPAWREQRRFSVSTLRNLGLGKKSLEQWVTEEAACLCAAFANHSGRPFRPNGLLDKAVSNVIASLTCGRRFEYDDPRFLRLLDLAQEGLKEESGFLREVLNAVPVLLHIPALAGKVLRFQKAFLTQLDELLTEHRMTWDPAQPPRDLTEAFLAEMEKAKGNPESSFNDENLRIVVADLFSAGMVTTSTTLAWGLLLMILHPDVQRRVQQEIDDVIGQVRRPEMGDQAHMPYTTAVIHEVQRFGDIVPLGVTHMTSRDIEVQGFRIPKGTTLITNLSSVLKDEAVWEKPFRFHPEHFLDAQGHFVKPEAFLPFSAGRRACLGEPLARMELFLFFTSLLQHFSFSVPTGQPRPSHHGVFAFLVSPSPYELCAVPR
Chain of Cytochrome P450 3A4 (P08684 whole entry): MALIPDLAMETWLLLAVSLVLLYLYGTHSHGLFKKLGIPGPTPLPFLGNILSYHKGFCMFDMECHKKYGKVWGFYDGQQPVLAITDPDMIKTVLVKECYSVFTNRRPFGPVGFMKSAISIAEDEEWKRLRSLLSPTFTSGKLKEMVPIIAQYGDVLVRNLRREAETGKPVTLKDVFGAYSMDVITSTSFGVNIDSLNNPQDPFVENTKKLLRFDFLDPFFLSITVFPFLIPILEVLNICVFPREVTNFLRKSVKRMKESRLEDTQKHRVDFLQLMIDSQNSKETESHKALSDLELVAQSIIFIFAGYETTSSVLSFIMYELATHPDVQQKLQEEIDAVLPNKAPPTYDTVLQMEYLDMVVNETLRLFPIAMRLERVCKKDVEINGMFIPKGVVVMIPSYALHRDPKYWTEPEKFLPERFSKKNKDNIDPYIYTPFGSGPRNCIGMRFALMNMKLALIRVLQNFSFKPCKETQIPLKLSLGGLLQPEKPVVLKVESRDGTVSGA
Chain of Voltage-gated inwardly rectifying potassium channel KCNH2 (Q12809 whole entry): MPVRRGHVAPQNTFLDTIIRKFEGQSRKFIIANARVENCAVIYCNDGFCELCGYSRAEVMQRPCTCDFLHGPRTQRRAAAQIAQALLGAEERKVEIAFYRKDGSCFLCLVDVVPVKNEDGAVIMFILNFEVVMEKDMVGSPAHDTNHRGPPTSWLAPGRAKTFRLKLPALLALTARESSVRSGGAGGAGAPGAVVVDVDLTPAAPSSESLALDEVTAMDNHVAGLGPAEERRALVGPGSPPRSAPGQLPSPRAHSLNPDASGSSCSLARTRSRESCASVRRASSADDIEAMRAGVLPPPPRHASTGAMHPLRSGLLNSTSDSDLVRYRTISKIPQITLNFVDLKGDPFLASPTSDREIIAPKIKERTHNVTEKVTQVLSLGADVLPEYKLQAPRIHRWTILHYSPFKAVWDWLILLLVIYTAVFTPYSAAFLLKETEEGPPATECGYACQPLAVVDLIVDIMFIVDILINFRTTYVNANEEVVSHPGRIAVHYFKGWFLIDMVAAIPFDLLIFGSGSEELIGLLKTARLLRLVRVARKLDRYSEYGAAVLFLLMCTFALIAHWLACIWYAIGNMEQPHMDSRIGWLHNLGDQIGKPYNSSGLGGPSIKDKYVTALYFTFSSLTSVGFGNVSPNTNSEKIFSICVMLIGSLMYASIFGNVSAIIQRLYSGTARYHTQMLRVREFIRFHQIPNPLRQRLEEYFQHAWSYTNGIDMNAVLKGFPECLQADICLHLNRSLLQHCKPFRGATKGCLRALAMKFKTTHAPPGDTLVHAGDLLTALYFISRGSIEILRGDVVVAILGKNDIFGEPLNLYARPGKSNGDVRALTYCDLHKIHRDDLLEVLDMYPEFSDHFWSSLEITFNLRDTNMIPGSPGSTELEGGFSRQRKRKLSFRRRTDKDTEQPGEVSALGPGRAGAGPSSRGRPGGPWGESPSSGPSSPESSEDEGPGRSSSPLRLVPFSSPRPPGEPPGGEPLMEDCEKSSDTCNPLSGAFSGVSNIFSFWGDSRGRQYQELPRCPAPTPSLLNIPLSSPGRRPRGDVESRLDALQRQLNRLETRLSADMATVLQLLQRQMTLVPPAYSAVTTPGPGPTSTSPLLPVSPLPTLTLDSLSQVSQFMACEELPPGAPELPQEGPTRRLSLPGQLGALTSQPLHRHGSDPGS
Chain of Bile salt export pump (O95342 whole entry): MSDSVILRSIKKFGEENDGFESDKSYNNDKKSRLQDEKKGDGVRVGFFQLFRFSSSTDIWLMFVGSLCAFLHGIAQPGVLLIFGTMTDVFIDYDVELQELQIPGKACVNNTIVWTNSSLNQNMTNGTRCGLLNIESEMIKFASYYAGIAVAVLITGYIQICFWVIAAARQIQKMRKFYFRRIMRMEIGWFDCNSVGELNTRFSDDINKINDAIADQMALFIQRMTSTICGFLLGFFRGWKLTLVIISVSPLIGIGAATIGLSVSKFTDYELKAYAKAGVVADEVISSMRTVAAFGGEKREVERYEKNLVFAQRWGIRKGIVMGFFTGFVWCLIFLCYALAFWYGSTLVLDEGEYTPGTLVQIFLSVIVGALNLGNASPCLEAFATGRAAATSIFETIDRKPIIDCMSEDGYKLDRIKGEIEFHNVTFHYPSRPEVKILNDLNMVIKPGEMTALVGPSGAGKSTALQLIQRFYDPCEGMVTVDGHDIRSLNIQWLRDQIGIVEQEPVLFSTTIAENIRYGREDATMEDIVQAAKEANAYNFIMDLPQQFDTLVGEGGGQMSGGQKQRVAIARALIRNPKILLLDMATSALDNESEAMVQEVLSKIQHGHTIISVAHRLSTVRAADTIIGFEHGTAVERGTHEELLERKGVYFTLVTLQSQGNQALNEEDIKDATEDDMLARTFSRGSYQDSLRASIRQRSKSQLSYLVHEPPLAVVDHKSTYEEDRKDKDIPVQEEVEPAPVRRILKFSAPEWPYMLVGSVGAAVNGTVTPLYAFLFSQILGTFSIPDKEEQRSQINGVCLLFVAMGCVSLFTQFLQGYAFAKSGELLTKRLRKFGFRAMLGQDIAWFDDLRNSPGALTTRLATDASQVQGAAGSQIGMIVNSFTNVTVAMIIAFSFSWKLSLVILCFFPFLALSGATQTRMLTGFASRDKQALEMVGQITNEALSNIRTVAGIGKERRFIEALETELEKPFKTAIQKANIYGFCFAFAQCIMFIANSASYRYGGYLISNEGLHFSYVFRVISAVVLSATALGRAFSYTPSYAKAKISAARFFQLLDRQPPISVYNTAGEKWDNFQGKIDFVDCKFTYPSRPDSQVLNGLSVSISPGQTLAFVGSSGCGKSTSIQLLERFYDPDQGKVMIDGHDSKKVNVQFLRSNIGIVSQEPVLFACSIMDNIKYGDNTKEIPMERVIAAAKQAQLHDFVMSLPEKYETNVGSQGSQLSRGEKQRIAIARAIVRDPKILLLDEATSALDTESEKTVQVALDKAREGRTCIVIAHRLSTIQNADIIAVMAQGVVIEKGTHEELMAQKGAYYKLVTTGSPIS

Work on `CC(C)(O)c1ccc(-c2cccc(N(CC34CCC(c5noc(C(C)(C)F)n5)(CC3)CC4)C(=O)[C@H]3C[C@](O)(C(F)(F)F)C3)c2)cc1` yielded an Emax [1] of 11%, a clearance [2] of 1.6 mL/min/kg and an IC50 (Bile salt export pump) of 1.4 µM. The clearance [3] was 4 mL/min/kg, the Activity (Mus musculus [4]) was “Dde” and the remaining at 10 min [5] was 93%. For the same compound, the Activity [6] was “Non-Toxic”, the half-life [7] was 18 h and the Vd [8] was 5.2 L/kg. For the same compound, the EC50 (Bile acid receptor [9]) was 0.034 µM, the Activity (Mus musculus [10]) was “Dde” and the EC50 (Bile acid receptor [11]) was 0.042 µM. For the same compound, the IC50 (Cytochrome P450 3A4) was greater than 20 µM, the EC50 [12] was 50 µM and the half-life [13] was 16 h. For the same compound, the IC50 (Cytochrome P450 2C8) was greater than 20 µM, the AUC [14] was 16.4 µM·h and the IC50 (Cytochrome P450 2D6) was greater than 20 µM. The Emax [15] was 189%, the IC50 [16] was 4.5 µM and the IC50 (Cytochrome P450 2C19) was greater than 20 µM. It also gave a remaining at 10 min [17] of 100%.

Reference: ChEMBL document CHEMBL5143714, “Discovery of BMS-986339, a Pharmacologically Differentiated Farnesoid X Receptor Agonist for the Treatment of Nonalcoholic Steatohepatitis” (J Med Chem, 2022)
